Assays:
Type in all cases: cell-based
[1] = tested on: fibroblasts from the papilla of human hair follicles; test: Amount of DNA in papilla fibroblasts grown as aggregates; conditions: capsaicin 10 μM
Protocol: Materials and method: A suspension composed of fibroblasts from the papilla of human hair follicles and basal culture medium, containing 0.05% v/v growth factor cocktail and the presence or absence of the H. rhamnoides hydrolyzate to be tested, was centrifuged for 5 minutes at 200×g to form aggregates. Control conditions were produced by adding 0.05% v/v growth factor cocktail (ethanol EtOH control) and adding capsaicin (10 μm) as a cell sensitizer (capsaicin control) to the basal culture medium. The aggregates were incubated at a temperature of 37° C. under controlled atmosphere (5% CO2 and 95% relative humidity). The aggregates were rinsed in buffered saline solution (PBS) and the cells were separated by incubation in a mixture of proteases (collagenase A, trypsin) with EDTA. A portion of the suspended cells was taken up in PBS for flow cytometry analysis. The cell count and autofluorescence are the two parameters measured. Autofluorescence is a direct parameter easily measured and used as a marker of cell senescence ([…] et al. 1982). The cell count is an indirect parameter of the growth potential of the hair follicle. […] These two parameters were measured according to the suppliers' instructions (CyQuant NF Cell proliferation Assay Kit C35006, Invitrogen and Bioluminescence Assay Kit CLS II Roche 11699695001, Sigma-Aldrich).

[2] = tested on: fibroblasts from the papilla of human hair follicles; test: ATP production by papilla fibroblasts grown as aggregates; conditions: capsaicin 10 μM
Protocol: (§1) Materials and method: A suspension composed of fibroblasts from the papilla of human hair follicles and basal culture medium, containing 0.05% v/v growth factor cocktail and the presence or absence of the H. rhamnoides hydrolyzate to be tested, was centrifuged for 5 minutes at 200×g to form aggregates. Control conditions were produced by adding 0.05% v/v growth factor cocktail (ethanol EtOH control) and adding capsaicin (10 μm) as a cell sensitizer (capsaicin control) to the basal culture medium. The aggregates were incubated at a temperature of 37° C. under controlled atmosphere (5% CO2 and 95% relative humidity). The aggregates were rinsed in buffered saline solution (PBS) and the cells were separated by incubation in a mixture of proteases (collagenase A, trypsin) with EDTA. A portion of the suspended cells was taken up in PBS for flow cytometry analysis. The cell count and autofluorescence are the two parameters measured. Autofluorescence is a direct parameter easily measured and used as a marker of cell senescence ([…] et al. 1982). The cell count is an indirect parameter of the growth potential of the hair follicle. Another portion of cells was used for analysis of the cell DNA content and ATP production rate. These two parameters were measured according to the suppliers' instructions (CyQuant NF Cell proliferation Assay Kit C35006, Invitrogen and Bioluminescence Assay Kit CLS II Roche 11699695001, Sigma-Aldrich).

[3] = tested on: fibroblasts from the papilla of human hair follicles; test: Flow cytometry of papilla fibroblasts grown as aggregates (number, granularity, autofluorescence); conditions: capsaicin 10 μM; Control (EtOH) = 100
Protocol: as §1

Human follicles = test: Ex vivo hair shaft elongation of cultured follicles; conditions: capsaicin (10 μm)
Protocol: Materials and method: Human follicles were cultured ex vivo in complete growth medium containing 0.5 μg/ml insulin, and treated with capsaicin […]. The latter molecule is used as an agent causing slowing of follicle growth. A control condition without capsaicin treatment was produced. Capsaicin-sensitized follicles were treated or not with 0.03% (w/v) H. rhamnoides hydrolyzate. Each culture condition was evaluated on […] cultured in isolation (n=10). The follicles were incubated at 37° C. in the presence of 5% CO2. The culture medium was renewed three times a week for approximately 2 weeks. The elongation of the hair shafts of the cultured follicles was obtained from photographs taken on different days. The hair length was evaluated by image analysis (Image J) and presented in μm as a mean±standard error.

In the case of COc1cc(CNC(=O)CCCC/C=C/C(C)C)ccc1O [Capsaicin, capsaicin], the “amount of DNA % deviation vs control” value [1] is reported as −77%, the “amount of DNA MEAN” value ([1]; EtOH control = 100) is reported as 23 and the “ATP production % Activity” value [2] is reported as −76%. The “reduction of the production of ATP relative to the control (ethanol)” value [2] was 76%, the “ATP production MEAN” value ([2]; EtOH control = 100) was 24 and the “Autofluorescence (%)” value [3] was 235%. The “Granularity (%)” value [3] was 217%, the “Number of cells (%)” value [3] was 28% and the “hair elongation MEAN (μm)” value (Human follicles; Day 0) was 0 μm. For the same molecule, the “hair elongation MEAN (μm)” value (Human follicles; Day 6) was 806 μm, the “hair elongation MEAN (μm)” value (Human follicles; Day 8) was 861 μm and the “hair elongation MEAN (μm)” value (Human follicles; Day 11) was 869 μm. For the same molecule, the “hair elongation MEAN (μm)” value (Human follicles; Day 13) was 938 μm and the “hair elongation MEAN (μm)” value (Human follicles; Day 15) was 936 μm.

— patent US20240050359A1, “COSMETIC USES OF A HIPPOPHAE RHAMNOIDES CAKE HYDROLYSATE” (BASF Beauty Care Solutions France SAS, priority 2020, published 2024)
